According to the CheMixHub viscosity set:

Test: xn = mol fraction of the nth substance listed

CC1CCCCC1 + C1COCCO1
303.15 K, 101.3 kPa
Conditions | viscosity [mPa·s]
x2 = 0.1001 | 0.6334
x2 = 0.2013 | 0.6394
x2 = 0.296 | 0.653
x2 = 0.3948 | 0.6802
x2 = 0.5046 | 0.7196
x2 = 0.5993 | 0.7612
x2 = 0.7003 | 0.8213
x2 = 0.7956 | 0.8868
x2 = 0.896 | 0.9775

CCOC(=O)c1ccccc1 + C1COCCO1
viscosity [mPa·s], 101 kPa
Conditions | x1 = 0.0639 | x1 = 0.1304 | x1 = 0.1626 | x1 = 0.2849 | x1 = 0.3735 | x1 = 0.4716 | x1 = 0.5805 | x1 = 0.7048 | x1 = 0.8402
303.15 K | 1.118 | 1.155 | 1.172 | 1.246 | 1.296 | 1.369 | 1.445 | 1.535 | 1.633
308.15 K | 1.026 | 1.062 | 1.078 | 1.146 | 1.195 | 1.259 | 1.33 | 1.416 | 1.502
313.15 K | 0.972 | 1.001 | 1.013 | 1.069 | 1.108 | 1.16 | 1.214 | 1.279 | 1.348

[Li+].[O-][Cl+3]([O-])([O-])[O-] + C1COCO1
101 kPa, x1 = 0.07
Conditions | viscosity [mPa·s]
303.15 K | 1
308.15 K | 0.93
313.15 K | 0.89
318.15 K | 0.85
323.15 K | 0.81

Cc1cccc([N+](=O)[O-])c1 + CC1CCCCC1
303.15 K, 101.33 kPa
Conditions | viscosity [mPa·s]
x1 = 0.202 | 0.77
x1 = 0.4 | 0.89
x1 = 0.6 | 1.09
x1 = 0.799 | 1.43

C=C(C)C(=O)OCC + CC#N
viscosity [mPa·s], 101 kPa
Conditions | 298.15 K | 303.15 K | 308.15 K | 313.15 K | 318.15 K
x2 = 0.0556 | 0.6285 | 0.5725 | 0.5246 | 0.4857 | 0.4542
x2 = 0.1112 | 0.6154 | 0.562 | 0.5162 | 0.479 | 0.4489
x2 = 0.1631 | 0.6027 | 0.5516 | 0.5079 | 0.4722 | 0.4433
x2 = 0.2147 | 0.5894 | 0.5408 | 0.499 | 0.4649 | 0.4372
x2 = 0.2795 | 0.5723 | 0.5266 | 0.4872 | 0.455 | 0.4287
x2 = 0.3446 | 0.5545 | 0.5115 | 0.4746 | 0.4443 | 0.4194
x2 = 0.4132 | 0.5349 | 0.495 | 0.4606 | 0.4322 | 0.4088
x2 = 0.4819 | 0.5147 | 0.4777 | 0.4458 | 0.4194 | 0.3974
x2 = 0.5597 | 0.4911 | 0.4574 | 0.4283 | 0.404 | 0.3836
x2 = 0.6375 | 0.4667 | 0.4364 | 0.41 | 0.3878 | 0.3689
x2 = 0.7251 | 0.4385 | 0.4119 | 0.3885 | 0.3686 | 0.3515
x2 = 0.8113 | 0.4101 | 0.387 | 0.3666 | 0.349 | 0.3334
x2 = 0.9014 | 0.3798 | 0.3604 | 0.343 | 0.3277 | 0.3137
x2 = 0.9542 | 0.3618 | 0.3445 | 0.3289 | 0.3148 | 0.3018

CCOC(=O)c1ccccc1 + CC#N
viscosity [mPa·s], 101.33 kPa
Conditions | x1 = 0.129 | x1 = 0.25 | x1 = 0.362 | x1 = 0.469 | x1 = 0.571 | x1 = 0.657 | x1 = 0.756 | x1 = 0.832 | x1 = 0.914
293.15 K | 0.465 | 0.496 | 0.554 | 0.627 | 0.714 | 0.843 | 1.056 | 1.362 | 1.764
303.15 K | 0.416 | 0.444 | 0.495 | 0.551 | 0.621 | 0.721 | 0.897 | 1.12 | 1.418
313.15 K | 0.378 | 0.403 | 0.443 | 0.491 | 0.549 | 0.631 | 0.764 | 0.939 | 1.161
323.15 K | 0.34 | 0.362 | 0.397 | 0.436 | 0.485 | 0.55 | 0.659 | 0.799 | 0.972

[Li+].[O-][Cl+3]([O-])([O-])[O-] + CC#N
viscosity [mPa·s], 101 kPa
Conditions | x1 = 0.0128 | x1 = 0.0255 | x1 = 0.0301 | x1 = 0.536
296.15 K | 0.444 | – | – | 0.66
297.15 K | – | 0.53 | – | –
313.15 K | 0.399 | 0.473 | 0.958 | 0.628

CCOC(=O)c1ccccc1 + CC(=O)CC(C)C
viscosity [mPa·s], 101.33 kPa
Conditions | 293.15 K | 303.15 K
x2 = 0.0752 | 1.89 | 1.55
x2 = 0.1491 | 1.675 | 1.376
x2 = 0.2022 | 1.58 | 1.303
x2 = 0.3364 | 1.375 | 1.15
x2 = 0.4004 | 1.277 | 1.079
x2 = 0.5355 | 1.109 | 0.94
x2 = 0.6213 | 0.988 | 0.85
x2 = 0.7165 | 0.88 | 0.757
x2 = 0.7942 | 0.797 | 0.69
x2 = 0.8805 | 0.719 | 0.625
x2 = 0.9154 | 0.686 | 0.599
x2 = 0.9549 | 0.648 | 0.569

CNS(C)(=O)=O + CC(=O)N(C)C
303.15 K, 101.33 kPa
Conditions | viscosity [mPa·s]
x1 = 0.1009 | 1.104
x1 = 0.2022 | 1.473
x1 = 0.2303 | 1.578
x1 = 0.4082 | 2.571
x1 = 0.4802 | 3.127
x1 = 0.6009 | 4.202
x1 = 0.7019 | 5.204
x1 = 0.7958 | 6.184
x1 = 0.8966 | 7.185

CCOC(=O)c1ccccc1 + CC(=O)O
298.15 K, 101 kPa
Conditions | viscosity [mPa·s]
x2 = 0.1041 | 1.948
x2 = 0.2129 | 1.874
x2 = 0.3045 | 1.797
x2 = 0.3882 | 1.727
x2 = 0.475 | 1.651
x2 = 0.5822 | 1.538
x2 = 0.6826 | 1.446
x2 = 0.7956 | 1.322
x2 = 0.9132 | 1.202

CCCCCl + CC(C)(C)O
viscosity [mPa·s], 101 kPa
Conditions | x1 = 0.1052 | x1 = 0.2087 | x1 = 0.315 | x1 = 0.4159 | x1 = 0.5172 | x1 = 0.6059 | x1 = 0.7101 | x1 = 0.8039 | x1 = 0.8976
298.15 K | 2.188 | 1.359 | 0.991 | 0.7867 | 0.6596 | 0.582 | – | 0.4746 | 0.4434
313.15 K | 1.279 | 0.9194 | 0.7181 | 0.5981 | 0.5189 | – | 0.4243 | 0.3963 | 0.377
